Assay results from paper PMC2358886, “Evolution of pharmacologic specificity in the pregnane X receptor” (BMC Evolutionary Biology, 2008).
Like-named read-outs stand apart in the source and are kept apart here.

What was measured:
rabbit PXR = target: T1, rabbit PXR (Oryctolagus cuniculus, UniProt Q9TU02); test: PXR activation luciferase reporter assay, rabbit PXR; conditions: for Rabbit PXR efficacy, ε: relative to 50 μM 5α-pregnan-3,20-dione, assigned an efficacy of 1.0
T1 sequence (Q9TU02 1-411): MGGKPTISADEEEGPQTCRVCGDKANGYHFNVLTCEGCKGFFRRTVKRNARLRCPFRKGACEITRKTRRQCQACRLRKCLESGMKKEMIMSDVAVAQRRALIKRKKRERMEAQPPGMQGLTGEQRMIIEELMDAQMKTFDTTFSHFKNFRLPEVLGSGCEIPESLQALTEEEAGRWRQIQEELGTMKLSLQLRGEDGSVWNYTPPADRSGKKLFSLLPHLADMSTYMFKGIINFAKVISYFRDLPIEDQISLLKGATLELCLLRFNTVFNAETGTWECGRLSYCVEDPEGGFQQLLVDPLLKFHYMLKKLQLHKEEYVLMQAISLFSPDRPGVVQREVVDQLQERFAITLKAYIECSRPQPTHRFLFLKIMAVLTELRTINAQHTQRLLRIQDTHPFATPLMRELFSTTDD

mouse PXR [1] = target: T2, mouse PXR (Mus musculus, UniProt O54915)
T2 sequence (O54915 1-431): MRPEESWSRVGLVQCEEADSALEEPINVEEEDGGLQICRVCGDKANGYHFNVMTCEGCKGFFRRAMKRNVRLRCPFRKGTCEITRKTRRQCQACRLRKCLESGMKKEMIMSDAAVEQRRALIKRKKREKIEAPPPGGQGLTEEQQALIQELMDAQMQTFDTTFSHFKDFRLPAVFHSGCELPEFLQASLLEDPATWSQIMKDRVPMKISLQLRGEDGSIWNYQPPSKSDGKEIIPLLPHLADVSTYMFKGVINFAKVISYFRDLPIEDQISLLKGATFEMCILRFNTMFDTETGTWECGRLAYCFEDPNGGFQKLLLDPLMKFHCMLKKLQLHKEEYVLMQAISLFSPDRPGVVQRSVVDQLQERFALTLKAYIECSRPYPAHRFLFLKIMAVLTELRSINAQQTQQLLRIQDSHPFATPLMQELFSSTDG

rat PXR [2] = target: T3, rat PXR (Rattus norvegicus, UniProt Q9R1A7); test: cell-based
T3 sequence (Q9R1A7 1-431): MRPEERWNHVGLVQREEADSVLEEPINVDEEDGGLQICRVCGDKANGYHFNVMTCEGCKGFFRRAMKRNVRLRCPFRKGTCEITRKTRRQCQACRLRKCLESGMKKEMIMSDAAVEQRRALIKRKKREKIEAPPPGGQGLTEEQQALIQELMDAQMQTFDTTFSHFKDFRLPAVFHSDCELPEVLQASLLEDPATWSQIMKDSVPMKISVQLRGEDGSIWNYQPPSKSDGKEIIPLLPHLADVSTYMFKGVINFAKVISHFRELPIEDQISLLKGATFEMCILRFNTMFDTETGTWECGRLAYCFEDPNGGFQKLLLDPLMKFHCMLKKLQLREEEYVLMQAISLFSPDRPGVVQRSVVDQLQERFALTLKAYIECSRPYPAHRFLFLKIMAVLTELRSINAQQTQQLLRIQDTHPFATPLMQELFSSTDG

rat PXR [3] = target: T3, rat PXR; conditions: for Rat PXR efficacy, ε: relative to 20 μM pregnenolone 16α-carbonitrile, assigned an efficacy of 1.0
chicken PXR [4] = target: T4, chicken PXR (Gallus gallus, UniProt Q9DFH3)
T4 sequence (Q9DFH3 1-391): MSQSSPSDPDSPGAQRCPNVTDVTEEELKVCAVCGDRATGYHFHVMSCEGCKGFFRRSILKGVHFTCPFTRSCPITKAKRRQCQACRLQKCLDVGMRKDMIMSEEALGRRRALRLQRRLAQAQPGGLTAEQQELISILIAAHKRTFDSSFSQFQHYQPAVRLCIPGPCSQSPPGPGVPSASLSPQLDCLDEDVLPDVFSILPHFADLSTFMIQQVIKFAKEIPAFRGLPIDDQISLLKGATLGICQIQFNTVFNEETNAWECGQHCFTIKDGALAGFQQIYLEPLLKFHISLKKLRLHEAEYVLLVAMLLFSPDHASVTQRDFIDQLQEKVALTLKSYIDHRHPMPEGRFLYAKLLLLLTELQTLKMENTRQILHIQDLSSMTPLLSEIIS

mouse PXR [5] = target: T2, mouse PXR; test: cell-based
chicken PXR [6] = target: T4, chicken PXR; test: cell-based
human PXR [7] = target: T5, human PXR (Homo sapiens, UniProt O75469)
T5 sequence (O75469 1-434): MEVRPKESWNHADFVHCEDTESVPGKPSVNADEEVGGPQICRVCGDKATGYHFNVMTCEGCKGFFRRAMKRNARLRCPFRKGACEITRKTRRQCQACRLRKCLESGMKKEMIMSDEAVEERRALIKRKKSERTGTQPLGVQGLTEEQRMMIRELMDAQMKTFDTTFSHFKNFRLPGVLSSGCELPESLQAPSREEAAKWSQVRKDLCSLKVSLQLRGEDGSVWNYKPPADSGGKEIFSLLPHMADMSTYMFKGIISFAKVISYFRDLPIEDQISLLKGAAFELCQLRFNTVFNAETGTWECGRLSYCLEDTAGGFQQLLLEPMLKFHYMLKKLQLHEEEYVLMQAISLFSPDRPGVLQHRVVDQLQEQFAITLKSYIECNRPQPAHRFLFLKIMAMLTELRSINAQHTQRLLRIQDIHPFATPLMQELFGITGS

HepG2 cells [8] = system: HepG2 cells
human PXR [9] = target: T5, human PXR; test: PXR activation luciferase reporter assay, human PXR in HepG2-NTCP cells
zebrafish PXR [10] = target: T6, zebrafish PXR (Danio rerio, UniProt A5WYG8); test: cell-based
T6 sequence (A5WYG8 144-430): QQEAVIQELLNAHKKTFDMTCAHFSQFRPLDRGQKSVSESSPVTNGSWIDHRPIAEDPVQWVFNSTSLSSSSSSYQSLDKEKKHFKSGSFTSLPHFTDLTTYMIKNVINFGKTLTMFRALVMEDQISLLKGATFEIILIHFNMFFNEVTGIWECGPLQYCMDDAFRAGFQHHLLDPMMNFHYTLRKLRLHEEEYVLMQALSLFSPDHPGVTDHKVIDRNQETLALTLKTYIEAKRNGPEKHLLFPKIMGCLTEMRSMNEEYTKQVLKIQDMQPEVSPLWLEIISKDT

zebrafish PXR [11] = target: T6, zebrafish PXR
HepG2 cells [12] = test: Toxicity assays in HepG2 cells (MTT and alamar blue reduction); conditions: lowest concentration that produced significant toxicity in the HepG2 cells
[13] = -log(EC50), EC50 in molar units
[14] = relative to 20 μM pregnenolone 16α-carbonitrile, assigned an efficacy of 1.0

SMILES | EC50 (rabbit PXR) [µM] | Rabbit PXR efficacy, ε (rabbit PXR) | EC50 (rat PXR [2]) [µM] | Rat PXR efficacy, ε (rat PXR [3]) | Chicken PXR Activity (chicken PXR [4]) | EC50 (mouse PXR [5]) [µM] | EC50 (chicken PXR [6]) [µM] | Mouse PXR efficacy, ε (mouse PXR [1]; [14]) | Chicken PXR efficacy, ε (chicken PXR [4]; chicken) | Toxicity (HepG2 cells [8]) | EC50 (zebrafish PXR [10]) [µM] | zfPXR Efficacy (zebrafish PXR [11]; zebrafish) | other results
C[C@H](CCC(=O)O)[C@H]1CC[C@H]2[C@@H]3CC[C@@H]4C[C@H](O)CC[C@]4(C)[C@H]3C[C@H](O)[C@]12C [BI008, Deoxycholic acid] | 36.3 | 0.37 | 10 | 0.32 | No effect | – | – | – | – | – | – | – | Mouse PXR Activity (mouse PXR [1]; [13]): No effect
C[C@H](CCC(=O)NCCS(=O)(=O)O)[C@H]1CC[C@H]2[C@@H]3[C@H](O)C[C@@H]4C[C@H](O)CC[C@]4(C)[C@H]3C[C@H](O)[C@]12C [BI022, Taurocholic acid] | – | – | – | – | No effect | 85.1 | – | – | – | – | – | – | Rat PXR Activity (rat PXR [3]; [13]): No effect
CC(C)CCC[C@@H](C)[C@H]1CC[C@H]2[C@@H]3[C@H](O)C[C@@H]4C[C@H](O)CC[C@]4(C)[C@H]3C[C@H](O)[C@]12C [BI023, 5β-Cholestan-3α,7α,12α-triol] | 3.89 | 0.37 | 2.24 | 0.72 | – | 1.41 | 1.29 | 1.23 | 0.27 | – | – | – | –
CC(CCCC(CO)COS(=O)(=O)O)[C@H]1CCC2C3C(C[C@H](O)[C@@]21C)[C@@]1(C)CC[C@@H](O)C[C@@H]1C[C@H]3O (stereo partly drawn) [BI036, 5β-Cholestan-3α,7α,12α,26-tetrol-27-sulfate] | 81.3 | 0.43 | 31.6 | 0.28 | – | 16.6 | 30.9 | 0.29 | 0.61 | None | 43.7 | 0.75 | Activation of human PXR (in words) (human PXR [7]): activated; EC50 (human PXR [9]; hPXR Activity, -log(EC50), EC50 in molar units, activation of human PXR): 25.7 µM; Activation of zebrafish PXR (in words) (zebrafish PXR [11]; bile salts): activated
Clc1cc2c(cc1Cl)Oc1cc(Cl)c(Cl)cc1O2 [MI34, 2,3,7,8-tetrachlorodibenzo-p-dioxin] | – | – | 0.2 | 0.83 | – | 0.1 | 0.0912 | 1.60 | – | – | – | – | Activation of rabbit PXR (in words) (rabbit PXR): inactive; Rabbit PXR Activity (rabbit PXR; [13]): No effect; EC50 (human PXR [9]): 0.0676 µM; hPXR Efficacy (human PXR [9]; relative to 10 μM rifampicin, assigned an efficacy of 1.0): 1.78; Toxicity (HepG2 cells [12]): 10 µM; EC50 (zebrafish PXR [10]; zfPXR Activity, -log(EC50), EC50 in molar units, activation of zebrafish PXR): 0.479 µM; zfPXR Efficacy (zebrafish PXR [11]; relative to 20 μM 5α-androstan-3α-ol, assigned an efficacy of 1.0): 6.17; Chicken PXR efficacy, ε (chicken PXR [4]; relative to 20 μM nifedipine, assigned an efficacy of 1.0): 0.06
CC(=O)[C@H]1CC[C@H]2[C@@H]3CC[C@@H]4CC(=O)CC[C@]4(C)[C@H]3CC[C@]12C [PR2, 5β-Pregnan-3,20-dione] | 12.6 | – | 5.75 | – | – | 4.37 | 2.57 | – | 5.59 (ε = 0.81) | None | 0.832 | 0.85 | hPXR Efficacy (human PXR [7]; human): 0.97; EC50 (human PXR [9]; hPXR Activity): 2.57 µM; Mouse PXR efficacy, ε (mouse PXR [1]; mouse): 5.36 (ε = 0.84)
